Test results from patent US6586216B2 (Purdue Research Foundation, priority 1997, dated 2003).
Several values for one entry are separate records, joined by “and”; a condition that tells them apart may be missing. Equal values may be shown once. Read-outs that look alike come from different tables or passages of the source.

Legend:
[1] = biological target: T1, Bacillus subtilis glutamine PRPP amidotransferase variant S283A (Bacillus subtilis, UniProt P00497, S294A); test: Inhibition of enzyme activity (glutamate formation) by nucleotides, mutant S283A; assay type: biochemical; conditions: for increase of concentration for 50% inhibition relative to wild type: ADP-GMP mixture
T1 construct: Enzymes of the B. subtilis class are synthesized with an NH2 terminal propeptide; made in house; host or cells: E. coli strain TX158 (purF), plasmid pBsF/S283A
T1 sequence (P00497 12-476 S294A): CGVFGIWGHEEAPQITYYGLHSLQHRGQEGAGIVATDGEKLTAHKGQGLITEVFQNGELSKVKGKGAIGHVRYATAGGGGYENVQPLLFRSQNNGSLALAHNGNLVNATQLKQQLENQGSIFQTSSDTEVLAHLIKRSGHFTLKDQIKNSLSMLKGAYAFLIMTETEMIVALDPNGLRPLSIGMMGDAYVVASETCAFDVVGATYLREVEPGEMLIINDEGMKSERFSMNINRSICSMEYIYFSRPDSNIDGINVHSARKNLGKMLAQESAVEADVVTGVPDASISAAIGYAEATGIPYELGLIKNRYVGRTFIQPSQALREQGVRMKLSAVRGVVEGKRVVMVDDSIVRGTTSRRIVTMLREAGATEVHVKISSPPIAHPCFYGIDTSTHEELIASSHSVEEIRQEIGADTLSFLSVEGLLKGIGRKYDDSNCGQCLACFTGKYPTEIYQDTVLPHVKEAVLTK
Text: (§1) Plasmid pGZ1 was used for production of the wild type enzyme. Plasmid pGZ1 contains a 1.6 kb EcoRI-HindIII purF^+ fragment (Makaroff, C. A., Zalkin, H., Switzer, R. L., and Vollmer, S. J. (1983) J. Biol. Chem. 258, pp. 10586-10593) inserted into the corresponding sites of pUC18. For construction of mutants, the EcoRI-HindIII purF^+ DNA was transferred to pUC118 to yield pBsF. Mutations were constructed by the method of Kunkel et al. (Kunkel, T. A., Roberts, J. D., and Zakour, R. A. (1987) Methods Enzymol. 154, pp. 367-382) using pBsF phagemid DNA. The resulting plasmids were named pBsF/S283A, pBsF/K305Q, pBsF/R307Q, and pBsF/S347A.
(§2) Enzyme activity was assayed by measuring the initial rate of formation of the product glutamate. […] Incubation was at 37° C. for 6 min. The reaction was linear with time for at least 20 min under these conditions of assay. Reactions were quenched in a boiling water bath for 2 min, and glutamate was determined by the glutamate dehydrogenase method. The control reaction mixture contained all the components except PRPP.
(§3) Inhibition by nucleotides was determined by the standard assay to which varied concentrations of nucleotide were added. Synergistic inhibition was determined by varying the concentration of one nucleotide in the presence of a fixed concentration of a second nucleotide. Relative activity (see FIG. 1) refers to the enzyme activity at a given concentration of the varied nucleotide relative to that in the absence of the varied nucleotide. I0.5 values were calculated from plots of relative activity versus varied nucleotide concentration.
(§4) Site directed mutagenesis was utilized to modify amino acids comprising the A site and C site domains of the glutamine PRPP amidotransferase. These modified forms of amidotransferase were analyzed to determine the impact of the mutations on end-product inhibition and enzymatic activity. Inhibition by nucleotides was determined as described in Example 1.

[2] = biological target: T2, Bacillus subtilis glutamine PRPP amidotransferase variant R307Q (Bacillus subtilis, UniProt P00497, R318Q); test: Inhibition of enzyme activity (glutamate formation) by nucleotides, mutant R307Q; assay type: biochemical
T2 construct: Enzymes of the B. subtilis class are synthesized with an NH2 terminal propeptide; made in house; host or cells: E. coli strain TX158 (purF), plasmid pBsF/R307Q
T2 sequence (P00497 12-476 R318Q): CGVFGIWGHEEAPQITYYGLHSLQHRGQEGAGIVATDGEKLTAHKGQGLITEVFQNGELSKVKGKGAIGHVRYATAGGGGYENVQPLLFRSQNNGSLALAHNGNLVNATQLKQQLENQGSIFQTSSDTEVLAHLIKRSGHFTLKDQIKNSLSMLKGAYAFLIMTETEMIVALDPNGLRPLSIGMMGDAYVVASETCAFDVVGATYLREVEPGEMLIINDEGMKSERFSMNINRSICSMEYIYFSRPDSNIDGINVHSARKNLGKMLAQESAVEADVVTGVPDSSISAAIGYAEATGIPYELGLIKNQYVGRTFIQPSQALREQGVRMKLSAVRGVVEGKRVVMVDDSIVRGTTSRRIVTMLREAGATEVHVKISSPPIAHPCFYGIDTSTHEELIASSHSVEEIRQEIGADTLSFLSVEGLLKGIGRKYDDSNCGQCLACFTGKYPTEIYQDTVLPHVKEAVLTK
Text: as §1, §2, §3, §4

[3] = biological target: T3, Bacillus subtilis glutamine PRPP amidotransferase, wild type (Bacillus subtilis, UniProt P00497); test: Inhibition of enzyme activity (glutamate formation) by nucleotides, wild type; assay type: biochemical; conditions: for Hill coefficient from inhibition data: determined from inhibition data, PRPP present
T3 construct: Enzymes of the B. subtilis class are synthesized with an NH2 terminal propeptide; made in house; host or cells: E. coli strain TX158 (purF), plasmid pGZ1
Protocol: Plasmid pGZ1 was used for production of the wild type enzyme. […] For construction of mutants, the EcoRI-HindIII purF^+ DNA was transferred to pUC118 to yield pBsF. […] The resulting plasmids were named pBsF/S283A, pBsF/K305Q, pBsF/R307Q, and pBsF/S347A.
Enzyme activity was assayed by measuring the initial rate of formation of the product glutamate. […] Incubation was at 37° C. for 6 min. […] Reactions were quenched in a boiling water bath for 2 min, and glutamate was determined by the glutamate dehydrogenase method.
as §3

[4] = biological target: T4, wild type B. subtilis glutamine PRPP amidotransferase (Bacillus subtilis, UniProt P00497); test: Nucleotide binding by equilibrium dialysis; conditions: for Kd: apparent Kd, half-saturation of A and C sites
T4 construct: Enzymes of the B. subtilis class are synthesized with an NH2 terminal propeptide and an Fe—S center; made in house; host or cells: E. coli strain TX158 (purF) with plasmid pGZ1
T4 sequence (P00497 12-476): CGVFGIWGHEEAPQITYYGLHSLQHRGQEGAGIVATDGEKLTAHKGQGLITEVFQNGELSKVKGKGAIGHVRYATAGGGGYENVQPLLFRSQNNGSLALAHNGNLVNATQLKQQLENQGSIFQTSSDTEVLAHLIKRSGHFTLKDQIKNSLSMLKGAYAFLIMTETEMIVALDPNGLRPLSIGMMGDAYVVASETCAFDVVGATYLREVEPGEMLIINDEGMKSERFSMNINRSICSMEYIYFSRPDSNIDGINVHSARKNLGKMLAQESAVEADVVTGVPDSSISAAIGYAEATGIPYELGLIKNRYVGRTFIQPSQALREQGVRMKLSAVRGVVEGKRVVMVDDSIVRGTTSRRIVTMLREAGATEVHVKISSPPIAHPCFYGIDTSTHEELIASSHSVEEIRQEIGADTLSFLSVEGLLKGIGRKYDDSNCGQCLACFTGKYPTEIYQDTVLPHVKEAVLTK
Protocol: Nucleotide binding was determined by equilibrium dialysis using chambers of 150 μL that were separated by a 12000-14000 molecular weight dialysis membrane. […] In some experiments, the chambers with radioactive nucleotide also contained a fixed concentration of a second non-radioactive nucleotide. The other chamber contained 50 mM Tris-HCl (pH 7.5) and 50-200 μM enzyme, calculated as the subunit concentration, in a volume of 100 μL. Dialysis was carried out for 20 h at room temperature (˜22° C.) in a rotating apparatus. Samples of 80 μL were retrieved from each chamber and were counted for radioactivity. All experiments were performed in an anaerobic glovebox. […] Equilibrium binding data were fit to the Hill equation (Y=C [free ligand]^n/[…]+[free ligand]^n, where Y is the fractional saturation, C is the binding capacity, Kd is the dissociation constant, and n is the Hill coefficient) by nonlinear regression using Ultrafit software (Biosoft, Cambridge, UK).

[5] = biological target: T5, Bacillus subtilis glutamine PRPP amidotransferase variant K305Q (Bacillus subtilis, UniProt P00497, K316Q); test: Inhibition of enzyme activity (glutamate formation) by nucleotides, mutant K305Q; assay type: biochemical
T5 construct: Enzymes of the B. subtilis class are synthesized with an NH2 terminal propeptide; made in house; host or cells: E. coli strain TX158 (purF), plasmid pBsF/K305Q
T5 sequence (P00497 12-476 K316Q): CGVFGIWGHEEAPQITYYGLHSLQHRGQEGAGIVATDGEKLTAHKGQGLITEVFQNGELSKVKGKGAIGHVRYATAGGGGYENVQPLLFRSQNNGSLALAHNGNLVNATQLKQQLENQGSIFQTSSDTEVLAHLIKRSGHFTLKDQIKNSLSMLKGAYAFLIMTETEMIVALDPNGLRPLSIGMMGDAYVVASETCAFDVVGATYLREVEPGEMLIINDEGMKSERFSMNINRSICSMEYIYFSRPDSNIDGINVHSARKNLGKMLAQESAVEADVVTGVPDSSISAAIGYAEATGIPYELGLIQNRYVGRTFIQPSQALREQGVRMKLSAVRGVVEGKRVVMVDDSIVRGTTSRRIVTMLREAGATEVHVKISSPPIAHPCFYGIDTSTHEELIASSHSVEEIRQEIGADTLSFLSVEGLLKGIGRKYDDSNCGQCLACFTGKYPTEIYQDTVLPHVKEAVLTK
Text: as §1, §2, §3, §4

[6] = I0.5, no fixed nucleotide, 2.5 mM PRPP, pH 8.0, 37° C.
[7] = fixed GMP 1.0 mM, read-out: I0.5
[8] = no fixed nucleotide, at saturation ± standard error
[9] = fixed ADP 0.5 mM, read-out: I0.5
[10] = no fixed nucleotide, 2.5 mM PRPP, pH 8.0, 37° C., read-out: I0.5

## Nc1ncnc2c1ncn2[C@@H]1O[C@H](COP(=O)(O)OP(=O)(O)O)[C@@H](O)[C@H]1O [ADP]
[1]
  increase of concentration for 50% inhibition relative to wild type: 30 fold
[1]; I0.5, fixed GMP 0.50 mM
  IC50: 4.8 mM
[1]; [6]
  IC50: 24 mM
[1]; fixed GMP 0.50 mM
  syn. (decreased I0.5 due to a second nucleotide): 5.0 fold
[1]; no fixed nucleotide
  I0.5 increase relative to wild type: 5-7 fold
  decreased inhibition relative to wild type: 5-7 fold
[2]; I0.5, fixed GMP 0.50 mM
  IC50: 2.4 mM
[2]; I0.5, fixed GMP 5.0 mM
  IC50: 0.18 mM
[2]; [6]
  IC50: 28 mM
[2]; fixed GMP 0.50 mM
  syn. (decreased I0.5 due to a second nucleotide): 12.0 fold
[2]; fixed GMP 5.0 mM
  syn. (decreased I0.5 due to a second nucleotide): 156.0 fold
[3]; I0.5, fixed GMP 0.25 mM
  IC50: 240 µM
[3]; [6]
  IC50: 4700 µM
[3]
  Hill coefficient from inhibition data: 3.8
[3]; fixed AMP 0.1 mM
  syn. (decreased I0.5 due to a second nucleotide): 1.9 fold
[3]; fixed GMP 0.25 mM
  syn. (decreased I0.5 due to a second nucleotide): 20 fold and 20.0 fold
[3]; fixed GMP 0.50 mM
  syn. (decreased I0.5 due to a second nucleotide): 29.0 fold
[3]; fixed GMP 0.50 mM, read-out: I0.5
  IC50: 160 µM
[3]; fixed GMP 1.0 mM
  syn. (decreased I0.5 due to a second nucleotide): 59 fold and 59.0 fold
[3]; [7]
  IC50: 80 µM
[3]; fixed GMP 2.0 mM
  syn. (decreased I0.5 due to a second nucleotide): 118.0 fold
[3]; fixed GMP 2.0 mM, read-out: I0.5
  IC50: 40 µM
[3]; fixed GMP 4.0 mM
  syn. (decreased I0.5 due to a second nucleotide): 188.0 fold
[3]; no fixed nucleotide
  concentration for 50% inhibition relative to AMP: 5 fold
[4]; ADP-GMP pair
  synergistic binding (decrease of Kd by second nucleotide): 20 fold
[4]; GMP fixed at either 0.25 or 1.0 mM
  equiv bound: approximately 1 equiv
[4]; fixed GMP 0.25 mM
  Capacity: 0.82 ± 0.11 equivalents bound per subunit
  Hill coefficient: 1.8 ± 0.8
[4]; fixed GMP 1.0 mM
  Capacity: 0.94 ± 0.14 equivalents bound per subunit
  Hill coefficient: 1.7 ± 0.9
[4]; [8]
  Capacity: 1.83 equivalents bound per subunit and 1.83 ± 0.26 equivalents bound per subunit
[4]; no fixed nucleotide, binding
  Hill coefficient: 1.8 and 1.8 ± 0.65
[5]; I0.5, fixed GMP 0.50 mM
  IC50: 12 mM
[5]; I0.5, fixed GMP 5.0 mM
  IC50: 0.32 mM
[5]; [6]
  IC50: 31 mM
[5]; fixed GMP 0.50 mM
  syn. (decreased I0.5 due to a second nucleotide): 2.6 fold
[5]; fixed GMP 5.0 mM
  syn. (decreased I0.5 due to a second nucleotide): 97.0 fold

## Nc1ncnc2c1ncn2[C@@H]1O[C@H](COP(=O)(O)O)[C@@H](O)[C@H]1O [AMP]
[1]; [6]
  IC50: 6.1 mM
[1]; no fixed nucleotide
  I0.5 increase relative to wild type: 5-7 fold
  decreased inhibition relative to wild type: 5-7 fold
[2]; [6]
  IC50: 2.6 mM
[3]
  Hill coefficient from inhibition data: 3.3-3.8
[3]; fixed ADP 0.5 mM
  syn. (decreased I0.5 due to a second nucleotide): 1.4 fold
[3]; [9]
  IC50: 640 µM
[3]; fixed GMP 1.0 mM
  syn. (decreased I0.5 due to a second nucleotide): 1.0 fold
[3]; [7]
  IC50: 940 µM
[3]; [10]
  IC50: 900 µM
[4]; Kd, no fixed nucleotide
  Kd: 214 µM and > 500 µM
[4]; by GMP or ADP
  increase in binding affinity by second nucleotide: 2-3 fold
[4]; fixed ADP 0.25 mM
  Hill coefficient: 2.3 ± 1.2
[4]; fixed ADP 0.5 mM
  Capacity: approximately 0.4 equivalents bound per subunit
[4]; fixed GMP 1.0 mM
  Hill coefficient: 2.1 ± 0.80
[4]; [8]
  Capacity: 1.57 equivalents bound per subunit and 1.57 ± 0.27 equivalents bound per subunit
[4]; no fixed nucleotide, binding
  Hill coefficient: 3.4 and 3.4 ± 1.8
[5]; [6]
  IC50: 2.5 mM

## Nc1nc2c(ncn2[C@@H]2O[C@H](COP(=O)(O)O)[C@@H](O)[C@H]2O)c(=O)[nH]1 [GMP]
[1]
  increase of concentration for 50% inhibition relative to wild type: 13 fold
[1]; I0.5, fixed ADP 0.5 mM
  IC50: 2 mM
[1]; I0.5, fixed ADP 2.5 mM
  IC50: 1.7 mM
[1]; [6]
  IC50: 6.6 mM
[1]; fixed ADP 0.5 mM
  syn. (decreased I0.5 due to a second nucleotide): 3.3 fold
[1]; fixed ADP 2.5 mM
  syn. (decreased I0.5 due to a second nucleotide): 3.9 fold
[1]; no fixed nucleotide
  inhibition compared with wild type: similar
[2]; I0.5, fixed ADP 0.5 mM
  IC50: 3.3 mM
[2]; I0.5, fixed ADP 2.5 mM
  IC50: 0.76 mM
[2]; [6]
  IC50: 50 mM
[2]; fixed ADP 0.5 mM
  syn. (decreased I0.5 due to a second nucleotide): 15.0 fold
[2]; fixed ADP 2.5 mM
  syn. (decreased I0.5 due to a second nucleotide): 66.0 fold
[3]; fixed ADP 0.5 mM
  syn. (decreased I0.5 due to a second nucleotide): 63 fold and 63.0 fold
[3]; [9]
  IC50: 150 µM
[3]; fixed AMP 0.1 mM
  syn. (decreased I0.5 due to a second nucleotide): 0.95 fold
[3]; fixed AMP 0.1 mM, read-out: I0.5
  IC50: 9900 µM
[3]; no fixed nucleotide
  concentration for 50% inhibition relative to ADP: 2 fold
  concentration for 50% inhibition relative to AMP: 10 fold
[3]; [10]
  IC50: 9400 µM
[4]; ADP bound to the A site
  increased C site binding affinity relative to IMP and AMP: 3 fold
[4]; fixed ADP 0.5 mM
  Capacity: 1 equivalents bound per subunit and 0.98 ± 0.10 equivalents bound per subunit
  Hill coefficient: 2.1 ± 1.0
[4]; no fixed nucleotide
  Kd of GMP for the free enzyme, estimated assuming 20-fold synergism: approximately 500 μM
  Kd: too weak to detect
[5]; I0.5, fixed ADP 0.5 mM
  IC50: 6 mM
[5]; I0.5, fixed ADP 2.5 mM
  IC50: 1.3 mM
[5]; [6]
  IC50: 50 mM
[5]; fixed ADP 0.5 mM
  syn. (decreased I0.5 due to a second nucleotide): 8.3 fold
[5]; fixed ADP 2.5 mM
  syn. (decreased I0.5 due to a second nucleotide): 38.0 fold
